Experimental data from ChEMBL document CHEMBL1201862, “PubChem BioAssay data set” (2004).
Activity calls are given as the source filed them. Rule as the data show it: actives have a measured IC50 and inactives only a lower limit.

These molecules were tested against Envelope glycoprotein gp160 (Human immunodeficiency virus 1, UniProt Q6QLK5) (assay: inhibitors of HIV fusion peptide binding, primary screen, biochemical, uHTS, fluorescence dequenching (AID 1986)).
Envelope glycoprotein gp160, sequence (Q6QLK5 whole entry, the tested form may be a part): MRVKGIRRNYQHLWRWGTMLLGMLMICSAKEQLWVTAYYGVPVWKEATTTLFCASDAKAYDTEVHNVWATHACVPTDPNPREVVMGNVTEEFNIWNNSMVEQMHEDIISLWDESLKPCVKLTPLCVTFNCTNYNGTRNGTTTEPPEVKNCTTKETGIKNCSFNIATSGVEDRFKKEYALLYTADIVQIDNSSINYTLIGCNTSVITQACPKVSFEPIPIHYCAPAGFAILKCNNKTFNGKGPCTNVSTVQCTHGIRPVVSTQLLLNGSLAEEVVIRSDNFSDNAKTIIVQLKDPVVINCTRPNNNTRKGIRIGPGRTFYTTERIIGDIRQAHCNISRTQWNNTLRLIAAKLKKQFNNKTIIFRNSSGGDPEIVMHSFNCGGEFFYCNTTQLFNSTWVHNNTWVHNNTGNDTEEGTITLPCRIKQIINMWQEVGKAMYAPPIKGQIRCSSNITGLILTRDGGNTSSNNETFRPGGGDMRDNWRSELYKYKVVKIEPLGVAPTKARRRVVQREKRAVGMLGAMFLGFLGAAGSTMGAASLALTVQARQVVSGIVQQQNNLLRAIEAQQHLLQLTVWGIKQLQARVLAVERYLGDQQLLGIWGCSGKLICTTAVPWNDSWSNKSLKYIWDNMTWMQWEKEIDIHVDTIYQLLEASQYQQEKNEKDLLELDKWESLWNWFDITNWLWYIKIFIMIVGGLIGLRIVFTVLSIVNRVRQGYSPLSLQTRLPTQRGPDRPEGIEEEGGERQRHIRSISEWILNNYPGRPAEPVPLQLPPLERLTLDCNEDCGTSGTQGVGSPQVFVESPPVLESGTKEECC
In the case of `COc1cc(/C=C(\C#N)c2nc3cc(C)ccc3[nH]2)cc([N+](=O)[O-])c1O`, the IC50 is reported as 18.7 µM (active). In the case of `CCOc1ccc(C2C(C(=O)Nc3ccccc3)=C(C)N=c3s/c(=C/c4cccc(OCC(=O)O)c4)c(=O)n32)cc1` (stereo not drawn), the IC50 is reported as 28.8 µM (active). For `CCc1ccc(/C=C2\SC(=S)N(CCCC(=O)Nc3ccccc3C(=O)O)C2=O)cc1`, the IC50 was 12.4 µM (active).
